Results published in patent US11013746B2, “Drug for preventing and/or treating polycystic kidney disease” (OTSUKA PHARMACEUTICAL CO., LTD., priority 2012, dated 2021).

System: pcy mice
Assay: Effect of tolvaptan and octreotide, alone or combined, on kidney weight of pcy mice (PKD model animals)
Format: in vivo
Settings: male pcy mice, 0.03% tolvaptan in feed and/or octreotide 300 μg/kg × 2/day sc; for kidney weight suppressive effect compared to the pcy control group: 15 weeks of age, Dunnett's test; for Kidney weight (% body weight) Mean ± SE: 15 weeks old at autopsy, treated from 5 to 15 weeks of age, pcy control 8.02 ± 0.66, normal DBA 1.53 ± 0.04
Description: Individual or combined effects of tolvaptan, which is a vasopressin receptor antagonist, and octreotide, which is a somatostatin analogue, against polycystic kidney disease were evaluated using pcy mice, which are PKD model animals.
The aforementioned pcy mice are adult polycystic kidney disease model mice, and the mode of inheritance is autosomal recessive. […] It has been reported that compared to wild-type mice, pcy mice have increased renal cAMP levels and elevated renal mRNA levels of aquaporin-2 and vasopressin V2 receptor (V2R). For details, see Non-patent Literature (NPL) 1.
Based on the body weight at 4 weeks of age and the renal volume measured by MRI, the pcy mice (male) were divided into the following four groups (each group: 9 mice):
(2) a group receiving a feed containing 0.03% tolvaptan;
(3) a group receiving octreotide (300 μg/kg×2/day sc); and
(4) a group receiving a feed containing 0.03% tolvaptan, and octreotide (300 μg/kg×2/day sc).
As normal control mice, DBA/2JJcl mice (5 mice) were used. A 0.03% tolvaptan-containing MF feed was given to the groups receiving tolvaptan. A MF feed not containing tolvaptan was given to the other groups, i.e., the control group and the group receiving octreotide alone. Sandostatin® subcutaneous injection (100 μg/ml) was diluted with physiological saline and subcutaneously injected in an amount of 300 μg/kg/10 ml to the group receiving octreotide twice a day, morning and evening.
The drug treatment was started from 5 weeks of age, and continued until 15 weeks of age. Urine was collected from each mouse at 14 weeks of age using metabolic cages for 19 hours, and urine volume and urinary albumin excretion were measured.
The DBA control mice and pcy mice were sacrificed under isoflurane anesthesia at 15 weeks of age to collect their blood, and right and left kidneys. Plasma parameters were measured from the obtained blood, and the weight of right and left kidneys was measured.

Molecule	kidney weight suppressive effect compared to the pcy control group	Kidney weight (% body weight) Mean ± SE [% body weight]
Cc1ccccc1C(=O)Nc1ccc(C(=O)N2CCCC(O)c3cc(Cl)ccc32)c(C)c1 (stereo not shown) [tolvaptan, 7-chloro-5-hydroxy-1-[2-methyl-4-(2-methylbenzoylamino)benzoyl]-2,3,4,5-tetrahydro-1H-benzoazepine]	did not exhibit significant kidney weight suppressive effects	7.28 ± 0.84
(−)-D-phenylalanyl-L-cysteinyl-L-phenylalanyl-D-tryptophyl-L-lysyl-L-threonyl-N-[(1R,2R)-2-hydroxy-1-(hydroxymethyl)propyl]-L-cysteinamide cyclic (2-47) disulfide [octreotide]	did not exhibit significant kidney weight suppressive effects	6.68 ± 0.65
